According to patent US8993542B2, “Methods of treating viral infections” (priority 2008, dated 2015):

Columns and labels:
HIV-1 = settings: monotherapy in naïve patients (Louie et al.); cited from earlier work
HIV-1Ba-L = test system: HIV-1Ba-L
Procedure: The anti-HIV-1 activity of CMX157 is evaluated in two-drug combination studies with twenty-four different FDA-approved anti-HIV inhibitors. Each two-drug combination is tested three times in CEM T-lymphocytic cells or MAGI-CCR5 cells acutely infected with the laboratory-adapted strain HIV-1IIIB or HIV-1Ba-L, respectively. Viral growth/inhibition is evaluated by measuring virus-induced cytopathic effects (CPE) in CEM cells or by β-galactosidase reporter gene induction in MAGI-CCR5 cells at the experimental endpoint. The cytotoxicity of each two-drug combination is also evaluated in parallel with the antiviral evaluations. The concentrations of CMX157 used in these evaluations are selected in order to test a broad range of concentrations and to provide as complete a dose response curve as possible under the limitations of eight total concentrations. […] The “positive antagonism control” of d4T (stavudine) in combination with RBV was tested in parallel with each of the assays that were performed. Analysis of drug interactions for each of the two-drug combinations is performed using the Prichard and Shipman MacSynergy II three-dimensional model for statistical evaluation of combination assays.

HIV-1IIIB = experiment: Two-drug combination antiviral assay in CEM cells (CPE), MacSynergy II; format: cell-based; settings: in combination with CMX157, CEM-SS cells, 95% confidence
HIV = experiment: microbe, parasite or virus in culture; format: cell-based
[1] = in combination with CMX157, MAGI-CCR5 cells, 95% confidence

Which viral load response (HIV-1) does the source give for `CC(C)OC(=O)OCOP(=O)(CO[C@H](C)Cn1cnc2c(N)ncnc21)OCOC(=O)OC(C)C.O=C(O)/C=C/C(=O)O` [TDF, 2,4,6,8-Tetraoxa-5-phosphanonanedioic acid, 5-[[(1R)-2-(6-amino-9H-purin-9-yl)-1-methylethoxy]methyl]-, bis(1-methylethyl) ester, 5-oxide, (2E)-2-butenedioate (1:1)] here?
Its viral load response is −1.5 log.

Which results are given for maraviroc [Maraviroc (MVC)]?
Antagonism Volume, Result 1 (HIV-1Ba-L; [1]): −3.82 nM^2 %, μM^2 % or nMμM %; Antagonism Volume, Result 2 (HIV-1Ba-L; [1]): −3.12 nM^2 %, μM^2 % or nMμM %; Antagonism Volume, Result 3 (HIV-1Ba-L; [1]): 0 nM^2 %, μM^2 % or nMμM %; Mean Antagonism Volume (n = 3) (HIV-1Ba-L; [1]): −2.31 nM^2 %, μM^2 % or nMμM %; Mean Synergy Volume (n = 3) (HIV-1Ba-L; [1]): 85.3 nM^2 %, μM^2 % or nMμM %; Synergy Volume, Result 1 (HIV-1Ba-L; [1]): 145 nM^2 %, μM^2 % or nMμM %; Synergy Volume, Result 2 (HIV-1Ba-L; [1]): 14.1 nM^2 %, μM^2 % or nMμM %; Synergy Volume, Result 3 (HIV-1Ba-L; [1]): 96.6 nM^2 %, μM^2 % or nMμM %; Interpretation of Antiviral Results (MacSynergy) (HIV-1Ba-L; two-drug combination (with CMX157; control d4T/RBV), MAGI-CCR5 cells): slightly synergistic

Which “Antagonism Volume, Result 1” value (HIV-1IIIB) does the source give for `Cc1cn([C@H]2C[C@H](N=[N+]=[N-])[C@@H](CO)O2)c(=O)[nH]c1=O` [ZDV, 3′-azido-2′,3′-dideoxythymdine] here?
The value was −67.8 nM^2 %, μM^2 % or nMμM %.

And the “Antagonism Volume, Result 2” value (HIV-1IIIB)?
The value was 0 nM^2 %, μM^2 % or nMμM %.

And the “Antagonism Volume, Result 3” value (HIV-1IIIB)?
The value was −0.77 nM^2 %, μM^2 % or nMμM %.

What about the “Mean Antagonism Volume (n = 3)” value (HIV-1IIIB) of the same compound?
The value was −21.7 nM^2 %, μM^2 % or nMμM %.

What about the “Mean Synergy Volume (n = 3)” value (HIV-1IIIB) of the same compound?
The value was 11.5 nM^2 %, μM^2 % or nMμM %.

And the “Synergy Volume, Result 1” value (HIV-1IIIB)?
Its value is 5.01 nM^2 %, μM^2 % or nMμM %.

What about the “Synergy Volume, Result 2” value (HIV-1IIIB) of the same compound?
Its value is 32.7 nM^2 %, μM^2 % or nMμM %.

And the “Synergy Volume, Result 3” value (HIV-1IIIB)?
Its value is 0 nM^2 %, μM^2 % or nMμM %.

What about the IC50 (HIV; Human immunodeficiency virus 1, PANEL 2, WT) of the same compound?
The IC50 was 0.017 µM.

What about the IC50 (HIV; Human immunodeficiency virus 1, PANEL 3, 6 TAMs, no 184) of the same compound?
Its IC50 is 9.56 µM.

What about the IC50 (HIV; Human immunodeficiency virus 1, PANEL 6, 6 TAMs + 184) of the same compound?
The IC50 was 1.61 µM.

And the IC50 (HIV; Human immunodeficiency virus 1, PANEL 7, 184V)?
The IC50 was 0.017 µM.

And the IC50 (HIV; Human immunodeficiency virus 1, PANEL 9, 69ins, no 184)?
Its IC50 is > 25 µM.

And the IC50 (HIV; Human immunodeficiency virus 1, PANEL 12, 69ins + 184)?
The IC50 was 8.71 µM.

What about the IC50 (HIV; Human immunodeficiency virus 1, PANEL 14, 65R, no 184) of the same compound?
The IC50 was 0.012 µM.

What about the IC50 (HIV; Human immunodeficiency virus 1, PANEL 15, 65R + 184V) of the same compound?
Its IC50 is 0.011 µM.

And the IC50 (HIV; Human immunodeficiency virus 1, PANEL 17, L74V)?
The IC50 was 0.011 µM.

What about the IC50 (HIV; Human immunodeficiency virus 1, PANEL 19, L74V + M184V) of the same compound?
The IC50 was 0.006 µM.

What about the IC50 (HIV; Human immunodeficiency virus 1, PANEL 26, 151M, no 184) of the same compound?
Its IC50 is 2.54 µM.

What about the IC50 (HIV; Human immunodeficiency virus 1, PANEL 28, 151M + 184) of the same compound?
Its IC50 is 4.18 µM.

And the IC50 (HIV; Human immunodeficiency virus 1, PANEL 29, L74V − SDM)?
The IC50 was 0.014 µM.

And the IC50 (HIV; Human immunodeficiency virus 1, PANEL 30, M184V − SDM)?
The IC50 was 0.009 µM.

What about the IC50 (HIV; Human immunodeficiency virus 1, PANEL 31, K65R − SDM) of the same compound?
Its IC50 is 0.014 µM.

What about the IC50 (HIV; Human immunodeficiency virus 1, PANEL 33, T215Y) of the same compound?
The IC50 was 1.05 µM.

And the IC50 (HIV; Human immunodeficiency virus 1, PANEL 34, T215Y + M184V)?
The IC50 was 0.071 µM.

And the IC50 (HIV; Human immunodeficiency virus 1, PANEL 35, M41L + T215Y)?
Its IC50 is 0.557 µM.

What about the IC50 (HIV; Human immunodeficiency virus 1, PANEL 37, M41L + T215Y + M184V) of the same compound?
The IC50 was 0.177 µM.

And the IC50 (HIV; Human immunodeficiency virus 1, PANEL 38, M41L + L210W + T215Y)?
The IC50 was 2.72 µM.

And the IC50 (HIV; Human immunodeficiency virus 1, PANEL 39, M41L + L210W + T215Y)?
Its IC50 is 2.68 µM.

And the IC50 (HIV; Human immunodeficiency virus 1, PANEL 40, M41L + L210W + T215Y + M184V)?
Its IC50 is 0.087 µM.

And the IC50 (HIV; Human immunodeficiency virus 1, PANEL 41, M41L + L210W + T215Y + M184V)?
The IC50 was 0.107 µM.

And the IC50 (HIV; Human immunodeficiency virus 1, PANEL 42, D67N + K70R)?
The IC50 was 0.77 µM.

What about the IC50 (HIV; Human immunodeficiency virus 1, PANEL 44, D67N + K70R + T215F + K219E + M184V) of the same compound?
The IC50 was 0.192 µM.

And the IC50 (HIV; Human immunodeficiency virus 1, PANEL 45, L210W + T215Y)?
Its IC50 is 0.207 µM.

What about the IC50 (HIV; Human immunodeficiency virus 1, PANEL 46, D67N + K70E) of the same compound?
Its IC50 is 0.006 µM.

And the IC50 (HIV; Human immunodeficiency virus 1, PANEL 47, D67N + K70E + M184V)?
The IC50 was 0.004 µM.

And the IC50 (HIV; Human immunodeficiency virus 1, PANEL 48, K70E + M184V)?
Its IC50 is 0.004 µM.
